Test results as given in PubChem BioAssay AID1919004 (Molecular Pharmacology Branch, DTP, NCI, 2023).

Test system: 883617-216-R-J1-PDC complex spheroids, growth, % test/control
Experiment: Anticancer human tumor 883617-216-R-J1-PDC patient-derived bladder carcinoma cell line growth inhibition [AhR]
Conditions: for IC50: curve of first compound; for viability, T/C: stronger effect = lower value
Summary of the method: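 Agents were dosed in half-log steps down from roughly clinical Cmax, or from 10 microM where Cmax was unknown, alone and with AhR antagonists. Read-out: percent test/control growth of tumor spheroids containing HUVEC and MSC stromal cells.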

[1] = second compound 0.1 µM, first compound 0.0316 µM
[2] = second compound 0.1 µM, first compound 0.1 µM
[3] = second compound 0.1 µM, first compound 0.316 µM
[4] = second compound 0.1 µM, first compound 1 µM
[5] = second compound 0.1 µM, first compound 3.16 µM
[6] = second compound 0.1 µM, first compound 10 µM
[7] = second compound 0.316 µM, first compound 0.0316 µM
[8] = second compound 0.316 µM, first compound 0.1 µM
[9] = second compound 0.316 µM, first compound 0.316 µM
[10] = second compound 0.316 µM, first compound 1 µM
[11] = second compound 0.316 µM, first compound 3.16 µM
[12] = second compound 0.316 µM, first compound 10 µM
[13] = second compound 1 µM, first compound 0.0316 µM
[14] = second compound 1 µM, first compound 0.1 µM
[15] = second compound 1 µM, first compound 0.316 µM
[16] = second compound 1 µM, first compound 1 µM
[17] = second compound 1 µM, first compound 3.16 µM
[18] = second compound 1 µM, first compound 10 µM
[19] = second compound 3.16 µM, first compound 0.0316 µM
[20] = second compound 3.16 µM, first compound 0.1 µM
[21] = second compound 3.16 µM, first compound 0.316 µM
[22] = second compound 3.16 µM, first compound 1 µM
[23] = second compound 3.16 µM, first compound 3.16 µM
[24] = second compound 3.16 µM, first compound 10 µM
[25] = second compound 10 µM, first compound 0.0316 µM
[26] = second compound 10 µM, first compound 0.1 µM
[27] = second compound 10 µM, first compound 0.316 µM
[28] = second compound 10 µM, first compound 1 µM
[29] = second compound 10 µM, first compound 3.16 µM
[30] = second compound 10 µM, first compound 10 µM
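Also: exposure lasted 7 days after dosing on day 3 of spheroid growth.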

CC(C)CC(NC(=O)C(Cc1ccccc1)NC(=O)c1cnccn1)B(O)O (stereo not given) + Cc1cncc(-c2nc(NCCc3c[nH]c4ccccc34)c3ncn(C(C)C)c3n2)c1
IC50 (second compound 0.1 µM): 9.01 nM
IC50 (second compound 0.316 µM): 8.45 nM
IC50 (second compound 1 µM): 7.37 nM
IC50 (second compound 3.16 µM): 6.62 nM
IC50 (second compound 10 µM): 3.48 nM
viability, T/C (second compound 0.1 µM, first compound 0.000949 µM): 90.2%
viability, T/C (second compound 0.1 µM, first compound 0.003 µM): 93.5%
viability, T/C (second compound 0.1 µM, first compound 0.00949 µM): 48.1%
viability, T/C (second compound 0.1 µM, first compound 0.03 µM): 0.14%
viability, T/C (second compound 0.1 µM, first compound 0.0949 µM): 0.1%
viability, T/C (second compound 0.1 µM, first compound 0.3 µM): 0.23%
viability, T/C (second compound 0.316 µM, first compound 0.000949 µM): 97.4%
viability, T/C (second compound 0.316 µM, first compound 0.003 µM): 96.1%
viability, T/C (second compound 0.316 µM, first compound 0.00949 µM): 44.8%
viability, T/C (second compound 0.316 µM, first compound 0.03 µM): 0.11%
viability, T/C (second compound 0.316 µM, first compound 0.0949 µM): 0.06%
viability, T/C (second compound 0.316 µM, first compound 0.3 µM): 0.21%
viability, T/C (second compound 1 µM, first compound 0.000949 µM): 111%
viability, T/C (second compound 1 µM, first compound 0.003 µM): 93.9%
viability, T/C (second compound 1 µM, first compound 0.00949 µM): 38.7%
viability, T/C (second compound 1 µM, first compound 0.03 µM): 0.1%
viability, T/C (second compound 1 µM, first compound 0.0949 µM): 0.05%
viability, T/C (second compound 1 µM, first compound 0.3 µM): 0.21%
viability, T/C (second compound 3.16 µM, first compound 0.000949 µM): 105%
viability, T/C (second compound 3.16 µM, first compound 0.003 µM): 111%
viability, T/C (second compound 3.16 µM, first compound 0.00949 µM): 23.6%
viability, T/C (second compound 3.16 µM, first compound 0.03 µM): 0.14%
viability, T/C (second compound 3.16 µM, first compound 0.0949 µM): 0.84%
viability, T/C (second compound 3.16 µM, first compound 0.3 µM): 0.2%
viability, T/C (second compound 10 µM, first compound 0.000949 µM): 61.7%
viability, T/C (second compound 10 µM, first compound 0.003 µM): 57.3%
viability, T/C (second compound 10 µM, first compound 0.00949 µM): 0.3%
viability, T/C (second compound 10 µM, first compound 0.03 µM): 0.24%
viability, T/C (second compound 10 µM, first compound 0.0949 µM): 0.23%
viability, T/C (second compound 10 µM, first compound 0.3 µM): 0.62%

Nc1ccccc1NC(=O)c1ccc(CNC(=O)OCc2cccnc2)cc1 + Cc1cncc(-c2nc(NCCc3c[nH]c4ccccc34)c3ncn(C(C)C)c3n2)c1
IC50 (second compound 0.1 µM): 607 nM
IC50 (second compound 0.316 µM): 664 nM
IC50 (second compound 1 µM): 834 nM
IC50 (second compound 3.16 µM): 1040 nM
IC50 (second compound 10 µM): < 31.6 nM
viability, T/C [1]: 81.2%
viability, T/C [2]: 78.8%
viability, T/C [3]: 66.7%
viability, T/C [4]: 37%
viability, T/C [5]: 11.3%
viability, T/C [6]: 1.5%
viability, T/C [7]: 88.1%
viability, T/C [8]: 79.7%
viability, T/C [9]: 68.5%
viability, T/C [10]: 40.1%
viability, T/C [11]: 14.4%
viability, T/C [12]: 0.94%
viability, T/C [13]: 96.6%
viability, T/C [14]: 93.7%
viability, T/C [15]: 77.8%
viability, T/C [16]: 44.6%
viability, T/C [17]: 14.1%
viability, T/C [18]: 0.83%
viability, T/C [19]: 109%
viability, T/C [20]: 105%
viability, T/C [21]: 83.2%
viability, T/C [22]: 51.1%
viability, T/C [23]: 18.9%
viability, T/C [24]: 0.37%
viability, T/C [25]: 41.6%
viability, T/C [26]: 42.5%
viability, T/C [27]: 35.8%
viability, T/C [28]: 21.3%
viability, T/C [29]: 11.1%
viability, T/C [30]: 0.35%

O=C(C=Cc1cccc(S(=O)(=O)Nc2ccccc2)c1)NO + Cc1cncc(-c2nc(NCCc3c[nH]c4ccccc34)c3ncn(C(C)C)c3n2)c1
IC50 (second compound 0.1 µM): 1740 nM
IC50 (second compound 0.316 µM): 1660 nM
IC50 (second compound 1 µM): 1960 nM
IC50 (second compound 3.16 µM): 1900 nM
IC50 (second compound 10 µM): < 31.6 nM
viability, T/C [1]: 92.5%
viability, T/C [2]: 93.9%
viability, T/C [3]: 83%
viability, T/C [4]: 60.6%
viability, T/C [5]: 37%
viability, T/C [6]: 3.56%
viability, T/C [7]: 88.5%
viability, T/C [8]: 86.4%
viability, T/C [9]: 84.4%
viability, T/C [10]: 60.3%
viability, T/C [11]: 34.5%
viability, T/C [12]: 4.17%
viability, T/C [13]: 97.1%
viability, T/C [14]: 101%
viability, T/C [15]: 96.4%
viability, T/C [16]: 63.5%
viability, T/C [17]: 39.1%
viability, T/C [18]: 2.44%
viability, T/C [19]: 123%
viability, T/C [20]: 114%
viability, T/C [21]: 94.8%
viability, T/C [22]: 69.8%
viability, T/C [23]: 34.6%
viability, T/C [24]: 2.66%
viability, T/C [25]: 52.4%
viability, T/C [26]: 43.2%
viability, T/C [27]: 34.7%
viability, T/C [28]: 42.7%
viability, T/C [29]: 22%
viability, T/C [30]: 1.42%

O=C(c1cc(Cc2n[nH]c(=O)c3ccccc23)ccc1F)N1CCN(C(=O)C2CC2)CC1 + Cc1cncc(-c2nc(NCCc3c[nH]c4ccccc34)c3ncn(C(C)C)c3n2)c1
IC50 (second compound 0.1 µM): > 10000 nM
IC50 (second compound 0.316 µM): > 10000 nM
IC50 (second compound 1 µM): > 10000 nM
IC50 (second compound 3.16 µM): > 10000 nM
IC50 (second compound 10 µM): > 10000 nM
viability, T/C [1]: 81.1%
viability, T/C [2]: 89.9%
viability, T/C [3]: 76.4%
viability, T/C [4]: 79.5%
viability, T/C [5]: 70.8%
viability, T/C [6]: 83.7%
viability, T/C [7]: 93.5%
viability, T/C [8]: 86.9%
viability, T/C [9]: 79.1%
viability, T/C [10]: 78.9%
viability, T/C [11]: 77.9%
viability, T/C [12]: 71.7%
viability, T/C [13]: 90%
viability, T/C [14]: 90.9%
viability, T/C [15]: 91%
viability, T/C [16]: 78.9%
viability, T/C [17]: 87%
viability, T/C [18]: 80%
viability, T/C [19]: 99.9%
viability, T/C [20]: 94.8%
viability, T/C [21]: 98.4%
viability, T/C [22]: 89.6%
viability, T/C [23]: 101%
viability, T/C [24]: 71.9%
viability, T/C [25]: 53.8%
viability, T/C [26]: 54.9%
viability, T/C [27]: 50.4%
viability, T/C [28]: 49.6%
viability, T/C [29]: 49.3%
viability, T/C [30]: 54.4%
